Earlier results as cited in paper PMC5281649 (European Journal of Nuclear Medicine and Molecular Imaging, 2016).

Assays:
[1] = cited from earlier work
[2] = in vivo; cited from earlier work
[3] = parameters: method as in doi:10.1016/S0924-977X(99)80017-0; details: doses providing full blockade of the enzyme; cited from earlier work

Structure (SMILES): C#CCN(C)[C@H](C)Cc1ccccc1 [selegiline]
- Effect in 2-year trial in patients with moderate AD [1]: may delay functional deterioration and disease progression
- Long-term effect on cognition in patients with moderate-to-severe AD [1]: no long-term benefit on cognition

Structure (SMILES): NCCNC(=O)c1ccc(Cl)cn1 [lazabemide]
- Reason development not continued [2]: hepatotoxic liability
- Effect on cognition and functionality in patients with AD [3]: significant improvement in cognition and functionality
